Results as given in paper PMC2806030, “Inhibition of mammalian S6 kinase by resveratrol suppresses autophagy” (Aging (Albany NY), 2009).

Assays:
Assay in all cases: biochemical
Set-up in all cases: Upstate KinaseProfiler in vitro kinase activity assay, per cent of DMSO control
Settings in all cases: read-out: Activity (% of Control)
[1] = target: T1, PKCγ(h) (Homo sapiens, UniProt P05129)
T1 construct: gene PRKCG
Method in brief: (§1)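 Profiling done with Upstate KinaseProfiler service across 100 kinases, resveratrol tested at 20 μM; activity expressed relative to control.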

[2] = target: CSK(h) (Homo sapiens, UniProt P41240)
Method in brief: as §1

[3] = target: T2, MST1(h) (Homo sapiens, UniProt Q13043)
T2 construct: gene STK4
Method in brief: as §1

[4] = target: T3, MSK1(h) (Homo sapiens, UniProt O75582)
T3 construct: gene RPS6KA5
Method in brief: as §1

[5] = target: T4, Abl(T315I)(h) (Homo sapiens, UniProt P00519, T315I)
T4 construct: gene ABL1
Method in brief: as §1

[6] = target: T5, SAPK2a(h) (Homo sapiens, UniProt Q16539)
T5 construct: gene MAPK14
Method in brief: as §1

[7] = target: T6, PI 3-Kinaseβ(h) (Homo sapiens, UniProt P42338)
T6 construct: gene PIK3CB
Method in brief: as §1

[8] = target: T7, PI 3-Kinaseδ(h) (Homo sapiens, UniProt O00329)
T7 construct: gene PIK3CD
Method in brief: as §1

[9] = target: T8, cKit(h) (Homo sapiens, UniProt P10721)
T8 construct: gene KIT
Method in brief: as §1

[10] = target: T9, IKKα(h) (Homo sapiens, UniProt O15111)
T9 construct: gene CHUK
Method in brief: as §1

[11] = target: CDK7/cyclinH/MAT1(h) (Homo sapiens, UniProt P50613)
Method in brief: as §1

[12] = target: T10, Fms(h) (Homo sapiens, UniProt P07333)
T10 construct: gene CSF1R
Method in brief: as §1

[13] = target: PAK4(h) (Homo sapiens, UniProt O96013)
Method in brief: as §1

[14] = target: T11, PKG1ß(h) (Homo sapiens, UniProt Q13976)
T11 construct: gene PRKG1; isoform beta
Method in brief: as §1

[15] = target: T12, PDK1(h) (Homo sapiens, UniProt O15530)
T12 construct: gene PDPK1
Method in brief: as §1

[16] = target: T13, SAPK4(h) (Homo sapiens, UniProt O15264)
T13 construct: gene MAPK13
Method in brief: as §1

[17] = target: CDK2/cyclinA(h) (Homo sapiens, UniProt P24941)
Method in brief: as §1

T10 sequence (P07333 whole entry): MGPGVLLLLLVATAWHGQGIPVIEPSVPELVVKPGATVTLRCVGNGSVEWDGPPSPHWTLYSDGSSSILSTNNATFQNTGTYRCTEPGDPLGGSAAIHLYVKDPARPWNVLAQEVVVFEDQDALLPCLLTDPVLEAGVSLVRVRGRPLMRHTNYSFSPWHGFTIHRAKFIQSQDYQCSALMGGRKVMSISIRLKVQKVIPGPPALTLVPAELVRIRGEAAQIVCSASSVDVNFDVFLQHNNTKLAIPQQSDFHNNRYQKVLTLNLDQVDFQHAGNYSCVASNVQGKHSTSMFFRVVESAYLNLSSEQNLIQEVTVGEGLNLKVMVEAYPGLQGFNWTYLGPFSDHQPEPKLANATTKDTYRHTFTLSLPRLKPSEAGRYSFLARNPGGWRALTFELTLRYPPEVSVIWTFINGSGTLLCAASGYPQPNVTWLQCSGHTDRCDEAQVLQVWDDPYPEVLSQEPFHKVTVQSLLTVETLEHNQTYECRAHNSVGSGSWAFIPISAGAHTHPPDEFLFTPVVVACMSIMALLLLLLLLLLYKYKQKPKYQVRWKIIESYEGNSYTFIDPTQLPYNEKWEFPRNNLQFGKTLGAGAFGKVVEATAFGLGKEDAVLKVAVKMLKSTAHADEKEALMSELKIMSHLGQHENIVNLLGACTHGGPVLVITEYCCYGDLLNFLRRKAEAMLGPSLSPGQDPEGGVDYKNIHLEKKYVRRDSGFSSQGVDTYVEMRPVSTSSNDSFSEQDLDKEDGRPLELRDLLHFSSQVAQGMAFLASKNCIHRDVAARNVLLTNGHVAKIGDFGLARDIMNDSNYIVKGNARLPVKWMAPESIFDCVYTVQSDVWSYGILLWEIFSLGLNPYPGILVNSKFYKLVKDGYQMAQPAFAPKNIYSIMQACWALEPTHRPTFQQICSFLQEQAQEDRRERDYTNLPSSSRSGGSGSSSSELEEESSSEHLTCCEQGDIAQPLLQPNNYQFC
T11 sequence (Q13976 whole entry, canonical isoform): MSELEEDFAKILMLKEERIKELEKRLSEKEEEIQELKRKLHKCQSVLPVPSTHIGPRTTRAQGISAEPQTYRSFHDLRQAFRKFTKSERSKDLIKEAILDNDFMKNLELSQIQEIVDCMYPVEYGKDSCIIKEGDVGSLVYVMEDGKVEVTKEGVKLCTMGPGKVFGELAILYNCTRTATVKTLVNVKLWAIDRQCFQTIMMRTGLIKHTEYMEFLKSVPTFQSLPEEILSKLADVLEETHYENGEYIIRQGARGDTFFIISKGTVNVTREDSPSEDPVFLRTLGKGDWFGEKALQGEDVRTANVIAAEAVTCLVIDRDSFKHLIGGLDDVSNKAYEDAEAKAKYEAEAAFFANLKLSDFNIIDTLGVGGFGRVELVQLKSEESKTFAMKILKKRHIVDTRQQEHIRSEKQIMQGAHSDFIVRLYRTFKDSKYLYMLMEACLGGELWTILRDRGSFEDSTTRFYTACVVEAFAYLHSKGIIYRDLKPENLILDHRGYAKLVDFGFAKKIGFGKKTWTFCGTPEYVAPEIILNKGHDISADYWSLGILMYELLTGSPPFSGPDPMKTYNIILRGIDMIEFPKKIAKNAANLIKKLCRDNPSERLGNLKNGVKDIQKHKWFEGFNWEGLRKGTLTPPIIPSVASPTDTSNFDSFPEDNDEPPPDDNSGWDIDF
T12 sequence (O15530 whole entry): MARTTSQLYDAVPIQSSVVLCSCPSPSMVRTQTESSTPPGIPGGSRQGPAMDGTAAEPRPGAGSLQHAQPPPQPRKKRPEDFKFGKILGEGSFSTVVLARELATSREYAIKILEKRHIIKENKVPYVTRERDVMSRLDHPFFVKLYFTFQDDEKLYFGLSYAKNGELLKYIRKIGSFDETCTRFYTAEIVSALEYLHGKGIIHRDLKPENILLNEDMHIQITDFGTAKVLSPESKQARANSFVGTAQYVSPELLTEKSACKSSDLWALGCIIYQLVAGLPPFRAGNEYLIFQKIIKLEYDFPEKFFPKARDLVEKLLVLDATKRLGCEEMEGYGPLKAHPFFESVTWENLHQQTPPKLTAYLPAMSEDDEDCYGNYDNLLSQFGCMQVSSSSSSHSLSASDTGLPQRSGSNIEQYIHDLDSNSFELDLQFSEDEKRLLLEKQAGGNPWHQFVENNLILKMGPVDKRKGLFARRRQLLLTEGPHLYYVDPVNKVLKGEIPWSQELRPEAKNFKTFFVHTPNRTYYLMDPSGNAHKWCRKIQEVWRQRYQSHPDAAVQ
T6 sequence (P42338 whole entry): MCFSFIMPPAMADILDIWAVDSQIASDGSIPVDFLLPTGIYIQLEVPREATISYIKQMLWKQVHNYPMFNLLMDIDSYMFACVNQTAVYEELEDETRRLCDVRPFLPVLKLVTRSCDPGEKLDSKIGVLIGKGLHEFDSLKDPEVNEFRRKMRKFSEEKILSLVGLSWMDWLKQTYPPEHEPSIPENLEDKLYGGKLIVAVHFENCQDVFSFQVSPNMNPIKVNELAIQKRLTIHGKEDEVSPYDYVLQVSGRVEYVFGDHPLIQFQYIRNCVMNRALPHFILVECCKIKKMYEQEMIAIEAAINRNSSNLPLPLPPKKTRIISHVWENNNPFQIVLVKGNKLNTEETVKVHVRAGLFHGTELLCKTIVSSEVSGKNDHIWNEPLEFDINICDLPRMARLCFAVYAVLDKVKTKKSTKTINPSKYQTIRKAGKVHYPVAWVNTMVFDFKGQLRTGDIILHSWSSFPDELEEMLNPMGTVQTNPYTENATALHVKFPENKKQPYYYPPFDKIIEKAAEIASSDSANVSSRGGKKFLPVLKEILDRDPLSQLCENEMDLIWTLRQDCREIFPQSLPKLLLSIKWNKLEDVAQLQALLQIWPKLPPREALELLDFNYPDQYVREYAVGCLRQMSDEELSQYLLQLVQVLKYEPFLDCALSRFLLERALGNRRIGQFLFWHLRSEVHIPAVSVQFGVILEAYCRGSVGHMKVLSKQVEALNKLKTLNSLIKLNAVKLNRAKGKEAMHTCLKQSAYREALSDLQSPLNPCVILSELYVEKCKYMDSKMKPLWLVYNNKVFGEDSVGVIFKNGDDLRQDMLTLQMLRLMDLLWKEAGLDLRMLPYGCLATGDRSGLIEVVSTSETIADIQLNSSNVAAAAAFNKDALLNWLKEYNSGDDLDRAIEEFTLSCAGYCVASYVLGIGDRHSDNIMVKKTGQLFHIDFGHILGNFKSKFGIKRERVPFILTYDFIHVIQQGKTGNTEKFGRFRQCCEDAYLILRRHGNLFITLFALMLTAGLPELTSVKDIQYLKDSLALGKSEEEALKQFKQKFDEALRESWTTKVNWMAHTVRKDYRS
T6 sequence (P27986 whole entry partner): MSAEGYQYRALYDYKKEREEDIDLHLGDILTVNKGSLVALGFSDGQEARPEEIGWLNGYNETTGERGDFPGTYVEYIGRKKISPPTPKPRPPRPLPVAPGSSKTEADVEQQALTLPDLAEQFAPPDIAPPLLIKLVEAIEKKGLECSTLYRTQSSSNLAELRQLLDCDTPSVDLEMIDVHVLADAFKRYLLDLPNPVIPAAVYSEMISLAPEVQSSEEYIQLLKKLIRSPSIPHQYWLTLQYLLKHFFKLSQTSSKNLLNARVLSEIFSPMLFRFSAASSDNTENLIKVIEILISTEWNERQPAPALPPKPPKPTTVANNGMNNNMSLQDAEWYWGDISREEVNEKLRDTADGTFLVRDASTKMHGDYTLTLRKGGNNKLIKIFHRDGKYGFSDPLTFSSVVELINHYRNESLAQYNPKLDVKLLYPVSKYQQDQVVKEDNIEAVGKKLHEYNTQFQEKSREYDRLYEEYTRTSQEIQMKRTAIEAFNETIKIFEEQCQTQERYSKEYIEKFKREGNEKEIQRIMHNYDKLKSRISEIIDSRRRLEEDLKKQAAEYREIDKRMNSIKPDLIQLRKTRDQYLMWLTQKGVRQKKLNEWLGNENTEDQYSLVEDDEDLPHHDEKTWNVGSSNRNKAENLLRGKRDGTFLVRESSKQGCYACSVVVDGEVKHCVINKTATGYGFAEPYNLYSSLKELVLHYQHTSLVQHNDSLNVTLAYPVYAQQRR
Chain of CDK7/cyclinH/MAT1(h) (P50613 whole entry): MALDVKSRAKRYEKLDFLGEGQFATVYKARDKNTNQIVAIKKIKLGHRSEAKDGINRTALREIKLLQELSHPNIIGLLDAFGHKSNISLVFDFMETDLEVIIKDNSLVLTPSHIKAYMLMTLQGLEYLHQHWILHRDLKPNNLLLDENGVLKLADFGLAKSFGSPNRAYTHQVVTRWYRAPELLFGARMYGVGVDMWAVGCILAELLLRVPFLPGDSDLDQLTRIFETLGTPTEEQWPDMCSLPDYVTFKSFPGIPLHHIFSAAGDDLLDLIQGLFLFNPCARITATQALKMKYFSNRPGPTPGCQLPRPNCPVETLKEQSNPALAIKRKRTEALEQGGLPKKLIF
Chain of CDK7/cyclinH/MAT1(h) (P51946 whole entry partner): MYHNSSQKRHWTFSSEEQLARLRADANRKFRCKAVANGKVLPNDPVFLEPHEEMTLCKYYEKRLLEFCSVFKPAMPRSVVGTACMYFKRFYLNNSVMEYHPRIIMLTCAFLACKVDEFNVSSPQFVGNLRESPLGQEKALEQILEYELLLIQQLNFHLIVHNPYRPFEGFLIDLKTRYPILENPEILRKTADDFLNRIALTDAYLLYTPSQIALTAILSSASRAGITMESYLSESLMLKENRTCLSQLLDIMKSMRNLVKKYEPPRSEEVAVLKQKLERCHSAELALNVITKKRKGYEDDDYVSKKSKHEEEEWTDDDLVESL
Chain of CDK7/cyclinH/MAT1(h) (P51948 whole entry partner): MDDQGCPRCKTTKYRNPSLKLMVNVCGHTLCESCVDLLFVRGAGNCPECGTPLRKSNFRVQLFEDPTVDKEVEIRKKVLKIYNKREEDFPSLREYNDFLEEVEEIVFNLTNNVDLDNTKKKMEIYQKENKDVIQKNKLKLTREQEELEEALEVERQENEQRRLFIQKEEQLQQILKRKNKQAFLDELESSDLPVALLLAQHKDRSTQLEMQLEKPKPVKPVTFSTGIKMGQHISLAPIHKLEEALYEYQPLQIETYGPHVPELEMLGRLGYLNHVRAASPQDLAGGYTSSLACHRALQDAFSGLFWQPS

Oc1ccc(/C=C/c2cc(O)cc(O)c2)cc1 [Res, resveratrol]
remaining activity at 20 µM [1]: 80 ± 8%
remaining activity at 20 µM [2]: 94 ± 5%
remaining activity at 20 µM [3]: 75 ± 6%
remaining activity at 20 µM [4]: 58 ± 1%
remaining activity at 20 µM [5]: 100 ± 2%
remaining activity at 20 µM [6]: 100 ± 4%
remaining activity at 20 µM [7]: 107 ± 1%
remaining activity at 20 µM [8]: 106 ± 1%
remaining activity at 20 µM [9]: 68%
remaining activity at 20 µM [10]: 40 ± 1%
remaining activity at 20 µM [11]: 95 ± 1%
remaining activity at 20 µM [12]: 61 ± 2%
remaining activity at 20 µM [13]: 103 ± 4%
remaining activity at 20 µM [14]: 56 ± 4%
remaining activity at 20 µM [15]: 108 ± 7%
remaining activity at 20 µM [16]: 92 ± 4%
remaining activity at 20 µM [17]: 80 ± 1%
